Holding throughout (experiment): KINOMEscan
What all share (assay type): binding
Common to all, as to conditions: read-out: % control activity remaining

The target in experiment [1] is T1, RIPK2 (Homo sapiens, UniProt O43353).
T1 construct: purchased Eurofins DiscoverX KINOMEscan

For experiment [2], the target named is T2, EPHA1 (Homo sapiens, UniProt P21709).
T2 construct: purchased Eurofins DiscoverX KINOMEscan
T2 sequence (P21709 26-976): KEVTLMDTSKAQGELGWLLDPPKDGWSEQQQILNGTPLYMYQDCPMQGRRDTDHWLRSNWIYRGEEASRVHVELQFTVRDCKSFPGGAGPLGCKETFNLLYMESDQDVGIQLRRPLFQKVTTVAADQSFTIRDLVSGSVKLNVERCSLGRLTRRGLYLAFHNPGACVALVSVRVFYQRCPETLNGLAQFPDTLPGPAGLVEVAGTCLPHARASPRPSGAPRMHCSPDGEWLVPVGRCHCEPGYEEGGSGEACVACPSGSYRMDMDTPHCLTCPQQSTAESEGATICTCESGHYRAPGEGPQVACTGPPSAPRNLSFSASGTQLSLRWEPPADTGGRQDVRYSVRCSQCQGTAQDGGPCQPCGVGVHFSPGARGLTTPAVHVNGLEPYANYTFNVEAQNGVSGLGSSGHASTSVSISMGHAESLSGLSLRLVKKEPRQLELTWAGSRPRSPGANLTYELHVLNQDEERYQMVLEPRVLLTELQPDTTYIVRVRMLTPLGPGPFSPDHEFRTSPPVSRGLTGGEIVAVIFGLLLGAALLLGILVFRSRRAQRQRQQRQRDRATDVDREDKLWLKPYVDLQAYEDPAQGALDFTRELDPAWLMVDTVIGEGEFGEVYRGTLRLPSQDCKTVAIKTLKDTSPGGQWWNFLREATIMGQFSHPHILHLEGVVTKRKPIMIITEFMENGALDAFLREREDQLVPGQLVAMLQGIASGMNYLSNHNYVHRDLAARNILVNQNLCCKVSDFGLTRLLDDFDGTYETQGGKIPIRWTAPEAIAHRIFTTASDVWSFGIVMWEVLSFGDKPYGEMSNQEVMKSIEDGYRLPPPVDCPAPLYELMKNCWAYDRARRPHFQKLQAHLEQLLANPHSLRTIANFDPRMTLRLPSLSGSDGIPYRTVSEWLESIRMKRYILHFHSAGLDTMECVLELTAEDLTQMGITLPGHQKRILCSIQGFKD

Experiment [3] addresses T3, CLK2 (Homo sapiens, UniProt P49760).
T3 construct: purchased Eurofins DiscoverX KINOMEscan

The target of experiment [4] is T4, MAP3K3 (Homo sapiens, UniProt Q99759).
T4 construct: purchased Eurofins DiscoverX KINOMEscan
T4 sequence (Q99759 1-626): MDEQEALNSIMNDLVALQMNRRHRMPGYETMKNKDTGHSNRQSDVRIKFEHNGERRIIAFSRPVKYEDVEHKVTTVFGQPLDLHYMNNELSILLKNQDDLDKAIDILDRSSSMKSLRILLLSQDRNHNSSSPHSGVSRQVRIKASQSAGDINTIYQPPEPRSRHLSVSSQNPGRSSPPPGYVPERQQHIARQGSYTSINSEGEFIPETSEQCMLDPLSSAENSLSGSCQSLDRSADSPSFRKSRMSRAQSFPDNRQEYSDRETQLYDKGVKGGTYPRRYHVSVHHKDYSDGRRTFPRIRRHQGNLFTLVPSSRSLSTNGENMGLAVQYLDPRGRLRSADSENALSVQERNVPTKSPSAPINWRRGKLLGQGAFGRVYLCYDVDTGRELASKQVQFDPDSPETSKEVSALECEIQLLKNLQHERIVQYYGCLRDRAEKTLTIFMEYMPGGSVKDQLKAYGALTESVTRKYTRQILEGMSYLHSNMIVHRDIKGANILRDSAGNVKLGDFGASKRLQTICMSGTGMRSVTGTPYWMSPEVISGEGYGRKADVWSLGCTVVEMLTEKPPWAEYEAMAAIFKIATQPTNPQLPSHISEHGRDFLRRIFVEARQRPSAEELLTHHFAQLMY

For experiment [5], the target named is T5, p38-delta (Homo sapiens, UniProt O15264).
T5 construct: purchased Eurofins DiscoverX KINOMEscan
T5 sequence (O15264 1-365): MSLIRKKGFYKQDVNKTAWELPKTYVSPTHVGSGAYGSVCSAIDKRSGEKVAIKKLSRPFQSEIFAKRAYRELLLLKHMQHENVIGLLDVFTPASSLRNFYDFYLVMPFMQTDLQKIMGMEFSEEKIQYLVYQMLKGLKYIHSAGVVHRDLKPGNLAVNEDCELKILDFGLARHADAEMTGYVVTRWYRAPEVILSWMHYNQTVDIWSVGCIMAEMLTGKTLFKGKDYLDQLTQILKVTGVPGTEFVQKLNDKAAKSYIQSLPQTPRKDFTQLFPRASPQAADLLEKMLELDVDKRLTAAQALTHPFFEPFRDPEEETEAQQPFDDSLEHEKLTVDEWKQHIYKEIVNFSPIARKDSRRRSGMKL

In experiment [6] the target is T6, TNIK (Homo sapiens, UniProt Q9UKE5).
T6 construct: purchased Eurofins DiscoverX KINOMEscan
T6 sequence (Q9UKE5 whole entry): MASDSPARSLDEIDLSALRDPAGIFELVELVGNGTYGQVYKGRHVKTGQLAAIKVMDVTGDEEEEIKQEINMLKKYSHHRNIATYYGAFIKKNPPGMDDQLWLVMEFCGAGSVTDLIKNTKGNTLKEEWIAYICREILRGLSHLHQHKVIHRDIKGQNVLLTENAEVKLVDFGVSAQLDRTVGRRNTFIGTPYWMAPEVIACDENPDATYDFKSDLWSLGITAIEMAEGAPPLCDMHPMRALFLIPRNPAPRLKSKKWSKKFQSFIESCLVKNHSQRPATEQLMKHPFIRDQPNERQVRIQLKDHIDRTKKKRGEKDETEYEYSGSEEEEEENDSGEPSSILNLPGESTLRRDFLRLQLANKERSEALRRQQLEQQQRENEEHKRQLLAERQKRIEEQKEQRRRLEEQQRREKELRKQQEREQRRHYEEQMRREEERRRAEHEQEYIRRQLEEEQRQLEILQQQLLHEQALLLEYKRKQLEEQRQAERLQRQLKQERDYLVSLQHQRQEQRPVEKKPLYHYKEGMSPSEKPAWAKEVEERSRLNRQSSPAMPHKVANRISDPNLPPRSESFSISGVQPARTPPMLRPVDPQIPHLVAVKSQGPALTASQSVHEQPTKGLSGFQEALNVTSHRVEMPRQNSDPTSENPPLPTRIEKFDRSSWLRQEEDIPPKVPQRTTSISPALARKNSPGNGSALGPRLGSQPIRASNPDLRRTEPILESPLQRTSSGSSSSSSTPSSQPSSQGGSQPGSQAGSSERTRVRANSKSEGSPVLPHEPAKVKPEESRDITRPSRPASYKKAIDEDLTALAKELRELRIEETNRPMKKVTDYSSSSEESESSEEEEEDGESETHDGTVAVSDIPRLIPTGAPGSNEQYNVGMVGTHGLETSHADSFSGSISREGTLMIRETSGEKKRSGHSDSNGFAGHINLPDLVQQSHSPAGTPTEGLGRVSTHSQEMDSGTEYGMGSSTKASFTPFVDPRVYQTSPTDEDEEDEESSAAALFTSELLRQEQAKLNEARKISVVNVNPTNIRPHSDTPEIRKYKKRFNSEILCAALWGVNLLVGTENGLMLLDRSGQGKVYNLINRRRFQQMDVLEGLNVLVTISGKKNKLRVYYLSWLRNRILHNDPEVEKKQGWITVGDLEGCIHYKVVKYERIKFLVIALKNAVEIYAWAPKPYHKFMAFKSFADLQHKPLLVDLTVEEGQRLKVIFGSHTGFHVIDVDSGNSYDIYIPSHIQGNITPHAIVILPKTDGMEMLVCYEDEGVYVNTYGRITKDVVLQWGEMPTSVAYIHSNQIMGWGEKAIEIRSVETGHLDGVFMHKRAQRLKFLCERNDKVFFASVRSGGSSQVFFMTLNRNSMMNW

Experiment [7] deals with T7, RET(V804M) (Homo sapiens, UniProt P07949, V804M).
T7 construct: purchased Eurofins DiscoverX KINOMEscan
T7 sequence (P07949 29-1114 V804M): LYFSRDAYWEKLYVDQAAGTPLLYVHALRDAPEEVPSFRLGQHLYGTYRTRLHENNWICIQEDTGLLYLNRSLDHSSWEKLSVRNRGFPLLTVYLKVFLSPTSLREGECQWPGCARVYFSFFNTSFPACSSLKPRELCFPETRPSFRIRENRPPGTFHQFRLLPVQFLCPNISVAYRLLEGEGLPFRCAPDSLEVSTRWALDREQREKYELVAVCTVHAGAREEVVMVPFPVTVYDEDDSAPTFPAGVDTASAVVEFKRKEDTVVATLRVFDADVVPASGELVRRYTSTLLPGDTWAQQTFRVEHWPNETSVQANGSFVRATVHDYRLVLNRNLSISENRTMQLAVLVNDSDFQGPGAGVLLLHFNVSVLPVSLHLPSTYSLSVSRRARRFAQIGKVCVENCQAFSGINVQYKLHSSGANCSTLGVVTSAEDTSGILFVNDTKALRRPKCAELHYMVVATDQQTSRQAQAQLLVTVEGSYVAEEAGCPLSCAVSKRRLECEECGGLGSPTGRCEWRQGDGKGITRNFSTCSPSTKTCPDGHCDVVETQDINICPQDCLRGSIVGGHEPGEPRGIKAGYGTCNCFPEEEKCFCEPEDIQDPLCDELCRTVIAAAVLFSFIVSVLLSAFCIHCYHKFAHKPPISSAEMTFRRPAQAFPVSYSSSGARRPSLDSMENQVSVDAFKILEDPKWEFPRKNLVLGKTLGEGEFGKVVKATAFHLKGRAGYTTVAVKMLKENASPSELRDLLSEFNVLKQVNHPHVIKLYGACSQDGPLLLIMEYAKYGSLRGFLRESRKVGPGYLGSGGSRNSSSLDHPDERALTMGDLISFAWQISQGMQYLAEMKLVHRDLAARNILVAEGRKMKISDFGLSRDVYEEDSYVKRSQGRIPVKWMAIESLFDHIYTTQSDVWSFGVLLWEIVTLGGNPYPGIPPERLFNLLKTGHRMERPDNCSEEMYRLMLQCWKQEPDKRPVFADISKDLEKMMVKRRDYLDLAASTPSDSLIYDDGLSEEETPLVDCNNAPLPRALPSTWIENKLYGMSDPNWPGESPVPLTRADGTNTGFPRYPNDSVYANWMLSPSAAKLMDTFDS

Experiment [8] concerns the target T8, MKNK1 (Homo sapiens, UniProt Q9BUB5).
T8 construct: purchased Eurofins DiscoverX KINOMEscan

Experiment [9] concerns the target T9, ABL1(Y253F)-phosphorylated (Homo sapiens, UniProt P00519, Y253F).
T9 construct: purchased Eurofins DiscoverX KINOMEscan

Experiment [10] has as its target T10, RSK2(Kin.Dom.1-N-terminal) (Homo sapiens, UniProt P51812).
T10 construct: RSK2(Kin.Dom.1-N-terminal); purchased Eurofins DiscoverX KINOMEscan

Experiment [11] deals with T11, MEK2 (Homo sapiens, UniProt P36507).
T11 construct: purchased Eurofins DiscoverX KINOMEscan
T11 sequence (P36507 whole entry): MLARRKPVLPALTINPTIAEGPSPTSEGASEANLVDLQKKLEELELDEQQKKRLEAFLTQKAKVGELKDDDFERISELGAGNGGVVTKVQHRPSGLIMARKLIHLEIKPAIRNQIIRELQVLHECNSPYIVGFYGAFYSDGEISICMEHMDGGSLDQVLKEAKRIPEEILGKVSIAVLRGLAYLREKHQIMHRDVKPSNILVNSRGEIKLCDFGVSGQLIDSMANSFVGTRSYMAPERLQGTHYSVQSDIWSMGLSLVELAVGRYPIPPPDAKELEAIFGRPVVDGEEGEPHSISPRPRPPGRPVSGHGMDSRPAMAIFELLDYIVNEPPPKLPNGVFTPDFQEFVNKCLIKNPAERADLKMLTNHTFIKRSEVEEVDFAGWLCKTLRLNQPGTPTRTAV

The target in experiment [12] is T12, PHKG2 (Homo sapiens, UniProt P15735).
T12 construct: purchased Eurofins DiscoverX KINOMEscan
T12 sequence (P15735 1-406): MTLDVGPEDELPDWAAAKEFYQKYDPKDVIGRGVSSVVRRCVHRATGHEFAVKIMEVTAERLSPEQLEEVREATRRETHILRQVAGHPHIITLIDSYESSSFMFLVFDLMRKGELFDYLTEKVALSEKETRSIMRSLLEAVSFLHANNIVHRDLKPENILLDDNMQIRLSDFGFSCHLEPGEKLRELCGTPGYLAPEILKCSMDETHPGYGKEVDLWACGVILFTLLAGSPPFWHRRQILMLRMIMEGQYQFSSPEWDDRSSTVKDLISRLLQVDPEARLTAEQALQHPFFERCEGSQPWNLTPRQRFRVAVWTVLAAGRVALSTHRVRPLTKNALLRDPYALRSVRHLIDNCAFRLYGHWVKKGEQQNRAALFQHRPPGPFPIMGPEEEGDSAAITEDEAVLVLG

T8 sequence (Q9BUB5 whole entry): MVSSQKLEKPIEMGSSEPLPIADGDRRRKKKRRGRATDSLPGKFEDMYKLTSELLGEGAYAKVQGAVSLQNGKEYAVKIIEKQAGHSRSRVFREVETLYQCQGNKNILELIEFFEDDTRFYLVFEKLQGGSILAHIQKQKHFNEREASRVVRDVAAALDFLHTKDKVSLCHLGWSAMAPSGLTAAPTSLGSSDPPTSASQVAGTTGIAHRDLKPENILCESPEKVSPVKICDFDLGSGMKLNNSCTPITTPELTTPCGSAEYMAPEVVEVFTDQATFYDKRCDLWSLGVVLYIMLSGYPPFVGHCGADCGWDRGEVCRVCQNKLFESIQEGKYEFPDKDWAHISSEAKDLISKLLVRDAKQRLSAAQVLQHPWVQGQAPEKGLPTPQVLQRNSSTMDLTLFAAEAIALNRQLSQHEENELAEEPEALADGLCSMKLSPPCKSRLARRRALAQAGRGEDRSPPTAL
T1 sequence (O43353 whole entry): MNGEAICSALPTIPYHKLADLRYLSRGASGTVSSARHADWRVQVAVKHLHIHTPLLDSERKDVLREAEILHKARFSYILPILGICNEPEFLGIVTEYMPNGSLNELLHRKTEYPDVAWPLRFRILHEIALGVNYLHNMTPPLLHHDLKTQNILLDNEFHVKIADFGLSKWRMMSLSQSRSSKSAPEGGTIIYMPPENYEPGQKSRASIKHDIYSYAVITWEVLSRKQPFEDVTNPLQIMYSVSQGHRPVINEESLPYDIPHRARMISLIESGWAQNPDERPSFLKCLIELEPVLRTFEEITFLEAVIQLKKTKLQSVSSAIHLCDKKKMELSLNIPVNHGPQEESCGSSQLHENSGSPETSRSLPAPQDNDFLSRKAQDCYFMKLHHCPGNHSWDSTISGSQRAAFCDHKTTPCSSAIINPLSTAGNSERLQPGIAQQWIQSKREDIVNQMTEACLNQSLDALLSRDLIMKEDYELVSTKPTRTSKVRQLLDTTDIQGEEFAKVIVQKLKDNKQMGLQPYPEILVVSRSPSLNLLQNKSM
T10 sequence (P51812 68-327 limits assumed): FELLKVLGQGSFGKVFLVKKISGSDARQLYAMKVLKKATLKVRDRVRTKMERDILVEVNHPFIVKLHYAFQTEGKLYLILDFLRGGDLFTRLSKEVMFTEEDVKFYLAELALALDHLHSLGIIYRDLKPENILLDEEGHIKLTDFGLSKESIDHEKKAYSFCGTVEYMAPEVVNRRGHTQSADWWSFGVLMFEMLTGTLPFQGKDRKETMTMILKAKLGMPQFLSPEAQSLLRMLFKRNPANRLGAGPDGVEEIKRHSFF
T3 sequence (P49760 whole entry): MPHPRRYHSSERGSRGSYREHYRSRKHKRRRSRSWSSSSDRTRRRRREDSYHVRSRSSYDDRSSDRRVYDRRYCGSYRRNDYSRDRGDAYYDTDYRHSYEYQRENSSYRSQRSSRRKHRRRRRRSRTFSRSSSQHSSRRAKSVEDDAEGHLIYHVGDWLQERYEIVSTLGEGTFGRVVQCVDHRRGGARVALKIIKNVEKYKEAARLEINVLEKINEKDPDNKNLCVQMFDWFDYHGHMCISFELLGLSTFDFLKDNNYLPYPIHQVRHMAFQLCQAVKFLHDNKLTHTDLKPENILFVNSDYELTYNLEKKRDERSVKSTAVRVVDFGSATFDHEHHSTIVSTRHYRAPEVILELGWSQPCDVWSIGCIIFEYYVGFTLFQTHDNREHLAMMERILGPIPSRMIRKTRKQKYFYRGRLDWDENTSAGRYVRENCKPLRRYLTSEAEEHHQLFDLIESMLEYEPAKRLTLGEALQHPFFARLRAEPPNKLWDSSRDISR

Regarding `Clc1cc(NCC2CC2)c2ncc(-c3ccc4[nH]ncc4c3)n2n1` [compound 2, 6-Chloro-N-(cyclopropylmethyl)-3-(1H-indazol-5-yl)imidazo[1,2-b]pyridazin-8-amine], the remaining binding at 1 µM in experiment [1] was found to be 88%; in [2] it was 80%; in experiment [3], 9.6%; in experiment [4], 88%; in experiment [5], 89%; in [6] it was 80%. For the same molecule, the remaining binding at 1 µM in experiment [7] is 97%; in experiment [8], 82%; in experiment [9] it was 71%; in [10], 37%; in experiment [11], 92%; in [12] it was 85%.
For `O=C(CN1CCOCC1)N[C@H]1CC[C@H](Nc2cc(Cl)nn3c(-c4ccc5[nH]ncc5c4)cnc23)CC1` [compound 26], the remaining binding at 1 µM in experiment [1] is 61%; in experiment [2], 84%; in experiment [3] it was 4.2%; in experiment [4] it was 89%; in [5], 60%; in experiment [6], 47%. Further, the remaining binding at 1 µM in experiment [7] worked out at 82%; in experiment [8], 88%; in [9] it was 55%; in [10] it was 19%; in experiment [11], 89%; in experiment [12], 29%.
In the case of `CN1CCC(CNc2cc(Cl)nn3c(-c4cc5nc(Nc6ccccc6)[nH]c5cc4F)cnc23)CC1` [compound 31, 6-Chloro-3-(6-fluoro-2-(phenylamino)-1H-benzo[d]imidazol-5-yl)-N-((1-methylpiperidin-4-yl)methyl)imidazo[1,2-b]pyridazin-8-amine], the remaining binding at 1 µM in experiment [1] came out at 100%; in experiment [2], 99%; in [3] it was 79%; in experiment [4], 73%; in experiment [5], 72%; in experiment [6] it was 97%. Further, the remaining binding at 1 µM is 100% in experiment [7]; 83% in [8]; 75% in experiment [9]; 100% in experiment [10]; 80% in [11]; 98% in experiment [12].

The values above are taken from publication PMC6437697 (Journal of Medicinal Chemistry, 2019).
